In publication PMC3920638, “The Development of Selective Inhibitors of NagZ: Increased Susceptibility of Gram-Negative Bacteria to β-Lactams” (Chembiochem, 2013):
Converted amounts (≈) assume the structure as drawn. Like-named read-outs stand apart in the source and are kept apart here.

Assays:
[1] = tested on: P. aeruginosa PA01; test: Minimal inhibitory concentration of β-lactams by serial dilution; details: Pseudomonas aeruginosa, PA01, 18 h, standard serial dilution, 18 h at 37°C
Description: Determination of the Minimal Inhibitory Concentration of β-lactams: Cultures were prepared by inoculating Mueller–Hinton broth (5 mL) with a small amount of a glycerol stock of P. aeruginosa PA01 and then were grown at 37°C to an OD600 value of ≈0.5. 96-well plates containing a range of concentrations of β-lactams varying by factors of 2 were prepared. […] These broths were inoculated with the culture (100 μL) and allowed to incubate at 37°C for 18 h. […] All MIC determinations were performed in triplicate.

[2] = tested on: P. aeruginosa PA01; test: Agar diffusion test; format: cell-based, Pseudomonas aeruginosa; details: 6 mm filter disks loaded with 30 μg of antibiotic, incubation overnight
[3] = biological target: T1, O-GlcNAcase (OGA) (Homo sapiens, UniProt O60502); test: Kinetic analysis of inhibitors against O-GlcNAcase; format: biochemical
T1 sequence (O60502 1-916): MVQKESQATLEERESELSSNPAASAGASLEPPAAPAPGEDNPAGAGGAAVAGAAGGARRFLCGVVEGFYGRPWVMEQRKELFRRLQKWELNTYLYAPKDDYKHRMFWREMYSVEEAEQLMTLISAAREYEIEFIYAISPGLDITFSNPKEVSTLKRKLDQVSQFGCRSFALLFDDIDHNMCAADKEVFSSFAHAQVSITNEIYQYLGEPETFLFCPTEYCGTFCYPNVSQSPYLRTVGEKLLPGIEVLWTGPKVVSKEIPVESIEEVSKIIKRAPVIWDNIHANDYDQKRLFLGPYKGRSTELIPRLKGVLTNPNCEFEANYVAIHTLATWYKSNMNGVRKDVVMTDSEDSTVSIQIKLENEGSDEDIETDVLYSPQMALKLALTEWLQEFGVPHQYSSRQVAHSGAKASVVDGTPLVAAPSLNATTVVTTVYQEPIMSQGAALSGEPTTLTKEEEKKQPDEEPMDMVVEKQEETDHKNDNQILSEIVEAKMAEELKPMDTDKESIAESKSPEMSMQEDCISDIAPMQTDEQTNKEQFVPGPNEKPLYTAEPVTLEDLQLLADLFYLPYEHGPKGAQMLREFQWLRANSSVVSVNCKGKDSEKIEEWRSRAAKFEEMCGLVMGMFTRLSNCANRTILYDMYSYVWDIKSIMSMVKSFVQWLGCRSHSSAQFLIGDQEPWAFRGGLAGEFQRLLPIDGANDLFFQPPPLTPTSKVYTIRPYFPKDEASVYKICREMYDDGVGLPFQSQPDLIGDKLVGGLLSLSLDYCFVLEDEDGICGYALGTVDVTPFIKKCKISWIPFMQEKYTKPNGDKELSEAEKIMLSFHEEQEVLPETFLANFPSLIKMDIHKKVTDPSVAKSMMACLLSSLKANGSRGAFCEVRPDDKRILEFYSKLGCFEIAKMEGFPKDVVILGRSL
Description: (§1) Kinetic analysis of inhibitors: Assays against O-GlcNAcase, VcNagZ and StNagZ were performed in NaPi buffer (50 mM, NaCl (100 mM), pH 6.5) and for β-hexosaminidase B citrate buffer (50 mM, NaCl (100 mM), pH 4.25) using 4-methylumbelliferyl N-acetyl-β-D-glucosaminide as substrate. For NAGLU, assays were performed in acetate buffer (100 mM, pH 4.3), containing bovine serum albumin (0.5 mgmL^−1) using 4-methylumbelliferyl N-acetyl-α-D-glucosaminide as substrate. Release of 4-methylumbelliferone was monitored continuously using a fluorimeter plate reader for OGA, VcNagZ and StNagZ, and a 30 min stopped-assay procedure was used for β-hexosaminidase B and NAGLU (quenched with fourfold excess of quenching buffer, glycine (200 mM), pH 10.75). For OGA, the inhibitors were preincubated with the enzyme for 10 min before the addition of the substrate. Readings were taken at excitation and emission wavelengths of 368 nm and 450 nm respectively. […] Inhibitors were added at a range of concentrations encompassing their Ki values. The rates at each inhibitor concentration were plotted and the best fit line through the points ascertained. The −1/Ki was taken as the point where the line of best fit intersected with 1/Vmax.

[4] = biological target: T2, VcNagZ (Vibrio cholerae serotype O1, UniProt Q9KU37); test: Kinetic analysis of inhibitors against VcNagZ; format: biochemical; details: for S.R. (Ki OGA/Ki VcNagZ): selectivity ratio
T2 sequence (Q9KU37 1-330): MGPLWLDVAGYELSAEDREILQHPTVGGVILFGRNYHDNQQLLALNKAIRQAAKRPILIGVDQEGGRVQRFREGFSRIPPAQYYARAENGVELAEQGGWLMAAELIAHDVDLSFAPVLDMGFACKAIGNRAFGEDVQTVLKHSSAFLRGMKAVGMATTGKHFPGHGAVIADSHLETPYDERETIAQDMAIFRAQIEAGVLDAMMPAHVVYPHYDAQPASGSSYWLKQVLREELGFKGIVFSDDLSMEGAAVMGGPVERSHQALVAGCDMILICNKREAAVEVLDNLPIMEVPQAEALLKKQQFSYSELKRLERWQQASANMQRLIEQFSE
Description: as §1

[5] = biological target: T3, StNagZ (Salmonella typhimurium, UniProt Q8ZQ06); test: Kinetic analysis of inhibitors against StNagZ; format: biochemical; details: for S.R. (Ki OGA/Ki StNagZ): selectivity ratio
T3 construct: made in house

[6] = biological target: T4, NAGLU (Homo sapiens, UniProt P54802); set-up: method as in PMID 10833408; details: read-out: NAGLU Ki; literature value; cited from earlier work
T4 sequence (P54802 24-743): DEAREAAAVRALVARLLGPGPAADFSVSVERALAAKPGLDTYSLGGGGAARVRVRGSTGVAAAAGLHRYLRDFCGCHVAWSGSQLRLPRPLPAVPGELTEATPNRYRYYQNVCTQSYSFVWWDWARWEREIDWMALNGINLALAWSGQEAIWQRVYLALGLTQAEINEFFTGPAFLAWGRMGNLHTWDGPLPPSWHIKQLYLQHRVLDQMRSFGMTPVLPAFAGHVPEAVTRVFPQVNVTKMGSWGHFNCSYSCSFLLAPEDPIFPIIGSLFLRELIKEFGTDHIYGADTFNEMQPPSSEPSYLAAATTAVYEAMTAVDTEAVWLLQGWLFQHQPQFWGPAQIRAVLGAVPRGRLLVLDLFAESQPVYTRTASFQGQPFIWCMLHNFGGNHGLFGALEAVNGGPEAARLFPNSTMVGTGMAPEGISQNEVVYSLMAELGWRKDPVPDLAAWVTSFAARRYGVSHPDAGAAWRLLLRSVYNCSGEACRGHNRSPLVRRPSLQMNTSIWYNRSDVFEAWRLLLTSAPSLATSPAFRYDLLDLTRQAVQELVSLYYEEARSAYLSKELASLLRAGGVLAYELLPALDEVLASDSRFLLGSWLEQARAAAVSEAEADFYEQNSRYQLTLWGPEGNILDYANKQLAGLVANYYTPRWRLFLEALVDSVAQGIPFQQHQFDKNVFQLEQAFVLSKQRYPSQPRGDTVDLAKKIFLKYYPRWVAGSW

[7] = biological target: T4, NAGLU; test: Kinetic analysis of inhibitors against NAGLU; format: biochemical
Description: as §1

[8] = biological target: T5, β-hexosaminidase B (Homo sapiens, UniProt P07686); test: Kinetic analysis of inhibitors against β-hexosaminidase B; format: biochemical
T5 sequence (P07686 122-556): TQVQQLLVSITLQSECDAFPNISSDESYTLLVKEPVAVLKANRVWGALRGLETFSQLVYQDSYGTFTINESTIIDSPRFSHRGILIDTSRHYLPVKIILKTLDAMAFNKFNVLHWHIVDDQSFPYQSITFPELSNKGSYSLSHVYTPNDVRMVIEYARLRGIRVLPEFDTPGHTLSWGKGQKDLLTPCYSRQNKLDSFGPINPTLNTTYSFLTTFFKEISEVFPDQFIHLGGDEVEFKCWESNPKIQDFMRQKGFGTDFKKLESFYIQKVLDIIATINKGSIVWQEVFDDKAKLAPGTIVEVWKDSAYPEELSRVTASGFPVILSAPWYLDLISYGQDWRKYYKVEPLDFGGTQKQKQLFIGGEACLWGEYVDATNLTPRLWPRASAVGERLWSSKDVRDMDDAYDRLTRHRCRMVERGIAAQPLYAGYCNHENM
Description: as §1

[9] = tested on: P. aeruginosa PA01; test: Control: 21 alone as inhibitor of bacterial growth; format: cell-based, Pseudomonas aeruginosa; details: up to 1 mM (data not shown)
Description: . […] Of note is that the concentration of 21 required to give rise to the increased susceptibility observed is fivefold less than the concentration of the PUGNAc analogue O-(2-deoxy-2-N-2-ethylbutyryl-D-glucopyranosylidene)amino N-phenylcarbamate (EtBuPUG) used previously to induce a similar effect.[23]

[10] = +21 (20 μL of 1 mM in H2O per well)

## CC1(C)S[C@@H]2[C@H](NC(=O)[C@H](N)c3ccccc3)C(=O)N2[C@H]1C(=O)O [Ampicillin, ampicillin]
[1]; [10]
  MIC: 128 µg/mL (≈ 366 µM)
[1]; −21
  MIC: 512 µg/mL (≈ 1470 µM)

## C[C@H]1[C@H](NC(=O)/C(=N\OC(C)(C)C(=O)O)c2csc(N)n2)C(=O)N1S(=O)(=O)O [Aztreonam, aztreonam]
[1]; [10]
  MIC: 0.5 µg/mL (≈ 1.15 µM)
[1]; −21
  MIC: 1 µg/mL (≈ 2.3 µM)

## CO[C@@]1(NC(=O)Cc2cccs2)C(=O)N2C(C(=O)O)=C(COC(N)=O)CS[C@@H]21 [Cefoxitin, cefoxitin]
[1]; [10]
  MIC: 512 µg/mL (≈ 1200 µM)
[1]; −21
  MIC: 2050 µg/mL (≈ 4790 µM)

## CC(C)(O/N=C(\C(=O)N[C@@H]1C(=O)N2C(C(=O)[O-])=C(C[n+]3ccccc3)CS[C@H]12)c1csc(N)n1)C(=O)O [Ceftazidime, ceftazidime]
[2]; +21
  Clearing radius: 14.3 mm
[2]; −21
  Clearing radius: 12.2 mm
[1]; [10]
  MIC: 0.5 µg/mL (≈ 0.915 µM)
[1]; −21
  MIC: 2 µg/mL (≈ 3.66 µM)

## CC(=O)N[C@H]1CN[C@H](CO)[C@@H](O)[C@@H]1O [Compound 1, 2-Acetamido-1,5-imino-1,2,5-trideoxy-D-glucitol]
[3]
  Ki: 23 µM
[4]
  Ki: 8.5 µM
  S.R. (Ki OGA/Ki VcNagZ): 2.8
[5]
  Ki: 25.2 µM
  S.R. (Ki OGA/Ki StNagZ): 0.94
[6]
  Ki: 0.45 µM

## CCC(=O)N[C@H]1CN[C@H](CO)[C@@H](O)[C@@H]1O [Compound 20, 1,5-Imino-2-propamido-1,2,5-trideoxy-D-glucitol]
[7]
  Ki: 96 µM
[3]
  Ki: 130 µM
[4]
  Ki: 4.2 µM
  S.R. (Ki OGA/Ki VcNagZ): 31
[5]
  Ki: 45.4 µM
  S.R. (Ki OGA/Ki StNagZ): 2.9
[8]
  Ki: 61 µM

## CCCC(=O)N[C@H]1CN[C@H](CO)[C@@H](O)[C@@H]1O [Compound 21, 2-Butamido-1,5-imino-1,2,5-trideoxy-D-glucitol]
[9]
  effect on bacterial growth rates: no differences in growth rates
[7]
  Ki: > 1000 µM
[3]
  Ki: > 500 µM
[4]
  Ki: 9.4 µM
  S.R. (Ki OGA/Ki VcNagZ): >53
[5]
  S.R. (Ki OGA/Ki StNagZ): >22
[8]
  Ki: 1460 µM

## CCCCC(=O)N[C@H]1CN[C@H](CO)[C@@H](O)[C@@H]1O [Compound 22, 1,5-Imino-1,2,5-trideoxy-2-valeramido-D-glucitol]
[7]
  Ki: > 1000 µM
[3]
  Ki: > 1000 µM
[4]
  Ki: 110 µM
  S.R. (Ki OGA/Ki VcNagZ): >9
[5]
  Ki: 47.3 µM
  S.R. (Ki OGA/Ki StNagZ): >21
[8]
  Ki: > 5000 µM

## CCCCCC(=O)N[C@H]1CN[C@H](CO)[C@@H](O)[C@@H]1O [Compound 23, 2-Hexamido-1,5-imino-1,2,5-trideoxy-D-glucitol]
[7]
  Ki: > 1000 µM
[3]
  Ki: > 1000 µM
[4]
  Ki: 1130 µM
  S.R. (Ki OGA/Ki VcNagZ): >0.9
[5]
  Ki: 102 µM
  S.R. (Ki OGA/Ki StNagZ): >10
[8]
  Ki: > 5000 µM

## CC(C)C(=O)N[C@H]1CN[C@H](CO)[C@@H](O)[C@@H]1O [Compound 24, 1,5-Imino-2-isobutamido-1,2,5-trideoxy-D-glucitol]
[7]
  Ki: 800 µM
[3]
  Ki: > 1000 µM
[4]
  Ki: 15.8 µM
[5]
  Ki: 24.6 µM
  S.R. (Ki OGA/Ki StNagZ): >40
[8]
  Ki: 670 µM

## CC(C)CC(=O)N[C@H]1CN[C@H](CO)[C@@H](O)[C@@H]1O [Compound 25, 1,5-Imino-2-isovaleramido-1,2,5-trideoxy-D-glucitol]
[7]
  Ki: > 1000 µM
[3]
  Ki: > 1000 µM
[4]
  Ki: 555 µM
  S.R. (Ki OGA/Ki VcNagZ): >1.8
[5]
  Ki: 294 µM
  S.R. (Ki OGA/Ki StNagZ): >3.4
[8]
  Ki: > 5000 µM

## C[C@@H](O)[C@H]1C(=O)N2C(C(=O)O)=C(SCCN=CN)C[C@H]12 [Imipenem, imipenem]
[2]; +21
  Clearing radius: 13.3 mm
[2]; −21
  Clearing radius: 11.9 mm
[1]; [10]
  MIC: 4 µg/mL (≈ 13.4 µM)
[1]; −21
  MIC: 8 µg/mL (≈ 26.7 µM)
